Data taken from ChEMBL document CHEMBL1201862, “PubChem BioAssay data set” (2004).
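Five compound concentrations were applied to cells in 96-well plates for 48 hours; endpoints were derived by simple linear interpolation of the resulting dose-response curve. GI50: concentration for 50% inhibition of growth.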 Calls of active or inactive are those of the source. No stated cut-off is given here; in the data, active = GI50 up to about 1.1 µM and inactive = higher.

What was measured:
Test in all cases: NCI-60 cell line screen, 48 h
CCRF-CEM = test system: CCRF-CEM
IGROV-1 = test system: IGROV-1
NCI/ADR-RES = test system: NCI/ADR-RES
SK-OV-3 = test system: SK-OV-3
SK-MEL-2 = test system: SK-MEL-2
MCF7 = test system: MCF7
SF-295 = test system: SF-295
KM12 = test system: KM12
EKVX = test system: EKVX
M14 = test system: M14
MOLT-4 = test system: MOLT-4
SN12C = test system: SN12C
RXF 393 = test system: RXF 393
SF-539 = test system: SF-539
ACHN = test system: ACHN
T47D = test system: T47D
SK-MEL-5 = test system: SK-MEL-5
HOP-62 = test system: HOP-62
CAKI-1 = test system: CAKI-1

Measured: GI50

CC(=O)Nc1ccc(C(=O)NN2C(=O)CSC2c2ccc([N+](=O)[O-])cc2)cc1 (stereo unspecified)
inactive: CCRF-CEM > 100 µM | IGROV-1 > 100 µM | NCI/ADR-RES > 100 µM | SK-OV-3 > 100 µM | SK-MEL-2 > 100 µM | MCF7 > 100 µM | SF-295 > 100 µM | KM12 > 100 µM | EKVX > 100 µM | M14 > 100 µM | MOLT-4 > 100 µM | SN12C > 100 µM | RXF 393 > 100 µM | SF-539 > 100 µM | ACHN > 100 µM | T47D > 100 µM | SK-MEL-5 > 100 µM | HOP-62 > 100 µM

CC(=O)OC(C(=O)NNC(=O)OC(C)(C)C)c1ccccc1 (stereo unspecified)
inactive: IGROV-1 > 100 µM | NCI/ADR-RES > 100 µM | SK-OV-3 > 100 µM | SK-MEL-2 > 100 µM | MCF7 > 100 µM | SF-295 > 100 µM | KM12 > 100 µM | EKVX > 100 µM | M14 > 100 µM | MOLT-4 > 100 µM | SN12C > 100 µM | RXF 393 > 100 µM | SF-539 > 100 µM | ACHN > 100 µM | CAKI-1 > 100 µM | T47D > 100 µM | SK-MEL-5 > 100 µM | HOP-62 > 100 µM

O=C(O)c1ccc(Nc2nc3cc(C(F)(F)F)ccc3nc2-c2ccccc2)cc1
inactive: CCRF-CEM 22.3 µM | IGROV-1 13.4 µM | NCI/ADR-RES 22.5 µM | MCF7 > 10 µM | SF-295 13.4 µM | KM12 13.2 µM | EKVX 11.3 µM | MOLT-4 24.9 µM | SN12C 26 µM | RXF 393 24 µM | SF-539 21.7 µM | ACHN 19.1 µM | CAKI-1 23.3 µM | T47D 7.26 µM | SK-MEL-5 21 µM | HOP-62 17.2 µM

CCOC(=O)N1C=CC(=C2C(=C3C=CN(C(=O)OCC)C=C3)C(=C3C=CN(C(=O)OCC)C=C3)C2=C2C=CN(C(=O)OCC)C=C2)C=C1
inactive: IGROV-1 16.1 µM | NCI/ADR-RES 22.4 µM | SK-OV-3 44 µM | SK-MEL-2 26.8 µM | MCF7 35.6 µM | SF-295 21.8 µM | KM12 22.1 µM | EKVX 48.5 µM | M14 28.3 µM | MOLT-4 16.9 µM | SN12C 20.2 µM | RXF 393 51.5 µM | SF-539 25 µM | ACHN 2.98 µM | CAKI-1 16.7 µM | T47D 36.5 µM | SK-MEL-5 26.5 µM | HOP-62 25.9 µM

Cc1ccc(S(=O)(=O)Nc2ccccc2C(=O)c2ccc(C)c(C)c2)cc1
inactive: IGROV-1 34.6 µM | NCI/ADR-RES > 100 µM | SK-OV-3 > 100 µM | SK-MEL-2 > 100 µM | MCF7 52.7 µM | SF-295 75 µM | KM12 63.4 µM | EKVX > 100 µM | M14 > 100 µM | SN12C > 100 µM | RXF 393 > 100 µM | SF-539 > 100 µM | ACHN 55.2 µM | CAKI-1 > 100 µM | T47D 71.1 µM | SK-MEL-5 35 µM | HOP-62 > 100 µM

COc1ccc(C2SC(=N)Nc3c2c(C)nn3C(=O)c2ccncc2)cc1 (stereo unspecified)
inactive: CCRF-CEM 29.4 µM | IGROV-1 89.5 µM | NCI/ADR-RES > 100 µM | SK-OV-3 > 100 µM | SK-MEL-2 > 100 µM | MCF7 75.2 µM | SF-295 > 100 µM | KM12 > 100 µM | EKVX > 100 µM | M14 > 100 µM | MOLT-4 44.5 µM | SN12C > 100 µM | RXF 393 > 100 µM | SF-539 > 100 µM | ACHN > 100 µM | T47D 45.5 µM | SK-MEL-5 45.7 µM | HOP-62 > 100 µM

c1ccc2sc(SSSc3nc4ccccc4s3)nc2c1
inactive: CCRF-CEM 28.4 µM | IGROV-1 > 100 µM | NCI/ADR-RES > 100 µM | SK-OV-3 > 100 µM | SK-MEL-2 > 100 µM | MCF7 44.1 µM | SF-295 > 100 µM | KM12 > 100 µM | EKVX > 100 µM | M14 > 100 µM | MOLT-4 77.3 µM | SN12C > 100 µM | RXF 393 > 100 µM | ACHN > 100 µM | CAKI-1 > 100 µM | T47D 32 µM | SK-MEL-5 > 100 µM | HOP-62 > 100 µM

Cn1nc(Cc2ccc(Cl)cc2)n(N)c1=O
inactive: IGROV-1 > 100 µM | NCI/ADR-RES > 100 µM | MCF7 > 100 µM | SF-295 > 100 µM | KM12 > 100 µM | MOLT-4 > 100 µM | SN12C > 100 µM | RXF 393 > 100 µM | SF-539 > 100 µM | ACHN > 100 µM | CAKI-1 > 100 µM | T47D > 100 µM | SK-MEL-5 > 100 µM
